The conditions of data set [1]: in vivo; cited from earlier work.
The subject of another data set is HSV-2. Briefly: microbe, parasite or virus in culture. Type of data set: cell-based, HSV-2 (strain HG-52). How it is done:
BHK-21/C13 cells (ATCC CCL 10) are incubated for two days in 150 cm^2 T-flasks (1.5×10^6 cells/flask) with alpha-MEM medium (Gibco Canada Inc., Burlington, Ontario, Canada) supplemented with 8% (v/v) fetal bovine serum (FBS, Gibco Canada Inc.). The cells are trypsinized and then transferred to fresh media in a 24 well plate to give 2.5×10^5 cells in 750 μL of media per well. The cells are incubated at 37° C. for a period of 6 hours to allow them to adhere to the plate. Thereafter, the cells are washed once with 500 μL of alpha-MEM supplemented with 0.5% (v/v) FBS and then incubated with 750 μL of the same media (low serum) for 3 days. After this period of serum starvation, the low serum medium is removed and the cells are incubated in 500 μL of BBMT for 2 to 3 hours. [BBMT medium is described by P. Brazeau et al., Proc. Natl. Acad. Sci. USA, 79, 7909 (1982).] Thereafter, the cells are infected with HSV-2 (multiplicity of infection=0.02 PFU/cell) in 100 μL of BBMT medium. (Note: The HSV-2 used was strain HG-52, see Y. Langelier and G. Buttin, J. Gen. Virol., 57, 21 (1981); the virus was stored at -80° C.) Following 1 hour of virus adsorption at 37° C., the media is removed and the cells are washed with BBMT (3×250 μL). The cells in each well are incubated with or without (control) appropriate concentrations of the test agent dissolved in 200 μL of BBMT medium. After 29 hours of incubation at 37° C., the infected cells are harvested by first freezing the plate at -80° C., followed by thawing. The cells in each well are scraped off the surface of the well with the help of the melting ice fragments. After complete thawing, the cell suspensions are collected and each well is rinsed with 150 μL of BBMT medium. The viral sample (suspension plus washing) is sonicated gently for 4 minutes at 4° C. Cell debris are removed by centrifugation (1000 times gravity for 10 minutes at 4° C.). The supernatant is collected and stored at -80° C. until determination of viral titer.
Viral titration was performed by a modification of the colorimetric assay method of M. Langlois et al., Journal of Biological Standardization, 14, 201 (1986).
More specifically, in a similar manner as described above, BHK-21/C13 cells are trypsinized and transferred to fresh media in a 96 well microtiter plate to give 20,000 cells in 100 μL of media per well. The cells in the prepared plate are incubated at 37° C. for 2 hours. During that time, the viral sample is thawed and sonicated gently for 15 seconds, and log dilutions of the sample are prepared (1/5 sequential: 50 μL of the sample plus 200 μL of BBMT medium, sequential dilutions being done with a multichannel pipette.
On completion of the above 2 hour incubation of the BHK-21/C13 cells, the media is replaced with alpha-MEM medium supplemented with 3% (v/v) FBS. The cells are now ready to be infected with the various sample dilutions of virus. Aliquots (50 μL) of the various dilutions are transferred into the appropriate wells of the plate. The resulting infected cells are incubated for 2 days at 37° C. Then 50 μL of a 0.15% (v/v) solution of neutral red dye in Hank's Balanced Salt Solution (pH 7.3, Gibco Canada Inc.) is added to each well. The prepared plate is incubated for 45 minutes at 37° C. Medium from each well is then aspirated and the cells are washed once with 200 μL of Hank's Balanced Salt Solution. After the wash, the dye is released from the cells by the addition of 100 μL of a 1:1 mixture of 0.1M Sorensen's citrate buffer (pH 4.2) and ethanol. [Sorensen's citrate buffer is prepared as follows: Firstly, a 0.1M disodium citrate solution is prepared by dissolving citric acid monohydrate (21 g) in 1N aqueous NaOH (200 mL) and adding sufficient filtered H2 O to make 1 L. Secondly, the 0.1M disodium citrate solution (61.2 mL) is mixed with 0.1N aqueous HCl (38.8 mL) and the pH of the resulting solution is adjusted to 4.2 if necessary.] […]

Read-outs that look alike come from different tables or passages of the source. Square brackets hold non-standard residues; d marks the D form. Peptide text beside a SMILES is read from it. * marks the point of attachment. Asp(3,3-(CH2)4) = N[C@H](C(=O)O)C1(C(=O)O)CCCC1; Leu(γ-Me)ol = CC(C)(C)C[C@@H](CO)N*; Hydrocinnamoyl = O=C(CCc1ccccc1)*; Tle = CC(C)(C)[C@H](N)C(=O)O; NMeV = CN[C@H](C(=O)O)C(C)C; Pyrrolidide = C1CCN(*)C1

For `Nc1nc2c(ncn2COCCO)c(=O)[nH]1` [acyclovir, 9-[(2-hydroxyethoxy)methyl]guanine], in data set [1], the side effects result is “skin rashes and renal impairment”. Moreover, the IC50 in the data set with HSV-2 (Human alphaherpesvirus 2, BHK21 (C13), 29 h, agent alone, HSV-2 in BHK-21/C13 cells, 29 hours incubation, read-out: IC50, concentration causing 50% inhibition of virus replication) is 1800 nM; in the data set on HSV-2 (Human alphaherpesvirus 2, BHK21 (C13), +20 μM of peptide, HSV-2 in BHK-21/C13 cells, read-out: IC50 of acyclovir), 700 nM; in the data set with HSV-2 (Human alphaherpesvirus 2, BHK21 (C13), +30 μM of peptide, HSV-2 in BHK-21/C13 cells, read-out: IC50 of acyclovir) it was 500 nM; in the data set with HSV-2 (Human alphaherpesvirus 2, BHK21 (C13), +40 μM of peptide, HSV-2 in BHK-21/C13 cells, read-out: IC50 of acyclovir) it was 110 nM; in the data set with HSV-2 (Human alphaherpesvirus 2, BHK21 (C13), +50 μM of peptide, HSV-2 in BHK-21/C13 cells, read-out: IC50 of acyclovir), 90 nM.
In turn, `CC(C)[C@@H](C(=O)N[C@H](C(=O)N[C@@H](CC(=O)N1CCCC1)C(=O)N[C@H](C(=O)N[C@H](CO)CC(C)(C)C)C1(C(=O)O)CCCC1)C(C)(C)C)N(C)C(=O)CCc1ccccc1` [peptide, PhCH2 CH2 CO--N-Me-Val-Tbg-Asp(pyrrolidino)-Asp(cyPn)-{(S)-NHCH[CH2 C(CH3)3 ]CH2 OH}] (Hydrocinnamoyl-[NMeV][Tle]D(Pyrrolidide)[Asp(3,3-(CH2)4)]-{Leu(γ-Me)ol}) returned an IC50 with HSV-2 (29 h) of 80000 nM.

The record behind these values is patent US5552384A, “Antiherpes compositions and method of use” (priority 1990, dated 1996).
